Read-outs that look alike come from different tables or passages of the source.

These results are taken from US8815909B2, “Diaminocyclohexane compounds and uses thereof” (Bristol-Myers Squibb Company, priority 2011, dated 2014).

This assay addresses T1, human Y4 receptor (Homo sapiens, UniProt P50391).
T1 construct: expressed in transfected cells
Briefly: NPY4 cAMP HTRF Agonist Assay (inhibitory cAMP assay, Gi activation by Y4 agonism). The format is cell-based. The settings on record: read-out: hY4 CAMP EC50. Summed up: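 CHO cells stably expressing human Y4, 5000/well, exposed to compound with forskolin and IBMX in PBS for 30 min at room temperature. Gi-mediated inhibition of cAMP then measured by HTRF after 1 h with d2-conjugate and anti-cAMP cryptate.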
In general terms: Time-resolved FRET reads energy transfer from a long-lived donor to a nearby acceptor.

[1] abbreviates: TABLE 7, R2 is Pyridinyl-oxadiazole-CH3.

T1 sequence (P50391 whole entry): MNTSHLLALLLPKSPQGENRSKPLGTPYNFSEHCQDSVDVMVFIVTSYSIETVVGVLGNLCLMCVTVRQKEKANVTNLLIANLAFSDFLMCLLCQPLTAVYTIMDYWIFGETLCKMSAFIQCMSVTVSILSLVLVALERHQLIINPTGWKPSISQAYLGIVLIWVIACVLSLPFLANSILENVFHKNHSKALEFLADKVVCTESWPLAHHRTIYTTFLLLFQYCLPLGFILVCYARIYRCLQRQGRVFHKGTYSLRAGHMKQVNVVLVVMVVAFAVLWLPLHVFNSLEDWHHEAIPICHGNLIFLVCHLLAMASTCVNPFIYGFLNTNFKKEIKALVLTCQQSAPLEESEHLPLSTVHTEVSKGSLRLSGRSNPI

By EC50 is commonly meant the concentration needed to bring the measured effect to its halfway point. Turning to `Cc1nnc(-c2ccc(N3CCCC(N[C@@H]4CCCC[C@H]4Nc4cc(-c5ccncc5)ccn4)C3)cc2)o1` (stereo partly shown) [Example 369], the EC50 (human Y4 receptor, cAMP) amounted to 5 nM.

In the case of `Cc1nnc(-c2ccc(N3CCCC(N[C@@H]4CCCC[C@H]4Nc4cc(-c5ccc(O)cc5)ccn4)C3)cc2)o1` (stereo partly shown) [Example 370], the EC50 (human Y4 receptor, cAMP) was 3 nM.

For the compound `Cc1nnc(-c2ccc(N3CCCC(N[C@@H]4CCCC[C@H]4Nc4cc(-c5cncc6ccccc56)ccn4)C3)cc2)o1` (stereo partly shown) [Example 371], the concentration giving a half-maximal response (EC50) (human Y4 receptor, cAMP) amounted to 18 nM.

Regarding `COc1ncccc1-c1ccnc(N[C@@H]2CCCC[C@H]2NC2CCCN(c3ccc(-c4nnc(C)o4)cc3)C2)c1` (stereo partly shown) [Example 372], the EC50 (human Y4 receptor, cAMP) turned out to be 59 nM.

Take `Cc1noc(-c2ccc(N3CCC[C@H](N[C@@H]4CCCC[C@H]4Nc4cc(-c5cccc(C(N)=O)c5)ccn4)C3)cc2)n1` [Example 374]: the half-maximal effective concentration (EC50) (human Y4 receptor, cAMP) came to 2 nM.

As to `Cc1nnc(-c2ccc(N3CCC[C@H](N[C@@H]4CCCC[C@H]4Nc4cc(-c5ccc(OC(F)F)cc5)ccn4)C3)cc2)o1` [Example 375], the EC50 (human Y4 receptor, cAMP) was found to be 217 nM.

Turning to `NC(=O)c1cccc(-c2ccnc(N[C@@H]3CCCC[C@H]3N[C@H]3CCCN(c4ccc(-c5ncon5)cc4)C3)c2)c1` [Example 376], for the setting “human Y4 receptor, cAMP”, the EC50 worked out at 15 nM.

Turning to `Cc1nnc(-c2ccc(N3CCC[C@H](N[C@@H]4CCCC[C@H]4Nc4cc(-c5cccc(S(N)(=O)=O)c5)ccn4)C3)cc2)o1` [Example 377], the EC50 (human Y4 receptor, cAMP) amounted to 93 nM.

Consider `Cc1nc(-c2ccc(N3CCC[C@H](N[C@@H]4CCCC[C@H]4Nc4cc(-c5cccc(C(N)=O)c5)ccn4)C3)cn2)no1` [Example 378], for which, under “human Y4 receptor, cAMP”, the EC50 amounted to 4 nM.

Consider `Cc1noc(-c2ccc(N3CCC[C@H](N[C@@H]4CCCC[C@H]4Nc4ncc(-c5cccc(C(N)=O)c5)o4)C3)cc2)n1` [Example 379], for which the EC50 (human Y4 receptor, cAMP) was 1 nM.

Take `Cc1nc(-c2ccc(N3CCC[C@](C)(N[C@@H]4CCCC[C@H]4Nc4cc(-c5cccc(C(N)=O)c5)ccn4)C3)cn2)no1` [Example 381]: the EC50 under setting [1] stood at 5 nM.

On to `COC(=O)Nc1cccc(-c2cnc(N[C@@H]3CCCC[C@H]3N[C@H]3CCCN(c4ccc(-c5noc(C)n5)nc4)C3)o2)c1` [Example 382], for which the EC50 under setting [1] stood at 1 nM.

Take `COC(=O)c1cccc(-c2cnc(N[C@@H]3CCCC[C@H]3N[C@H]3CCCN(c4ccc(-c5noc(C)n5)nc4)C3)o2)c1` [Example 383]: the EC50 under setting [1] stood at 14 nM.

In the case of `Cc1nc(-c2ccc(N3CCC[C@H](N[C@@H]4CCCC[C@H]4Nc4ncc(-c5cccc(C(=O)O)c5)o4)C3)cn2)no1` [Example 384], the EC50 under setting [1] amounted to 606 nM.

Take `CNC(=O)c1cccc(-c2cnc(N[C@@H]3CCCC[C@H]3N[C@H]3CCCN(c4ccc(-c5noc(C)n5)nc4)C3)o2)c1` [Example 385]: under setting [1], the EC50 was found to be 9 nM.

As for `Cc1nc(-c2ccc(N3CCC[C@H](N[C@@H]4CCCC[C@H]4Nc4ncc(-c5cccc(C(=O)NCC(C)C)c5)o4)C3)cn2)no1` [Example 386], under setting [1], the 50% effective concentration (EC50) was determined as 243 nM.

Take `Cc1nc(-c2ccc(N3CCC[C@H](N[C@@H]4CCCC[C@H]4Nc4ncc(-c5cccc(C(=O)NC6CC6)c5)o4)C3)cn2)no1` [Example 387]: the EC50 under setting [1] amounted to 78 nM.

Regarding `Cc1nc(-c2ccc(N3CCC[C@](C)(N[C@@H]4CCCC[C@H]4Nc4ncc(-c5cccc(C(N)=O)c5)o4)C3)cn2)no1` [Example 389], under setting [1], the EC50 came to 13 nM.

Consider `Cc1nc(-c2ncc(N3CCC[C@H](N[C@@H]4CCCC[C@H]4Nc4ncc(-c5cccc(C(N)=O)c5)o4)C3)cn2)no1` [Example 390], for which the EC50 under setting [1] is 3 nM.

`Cc1nc(-c2ccc(N3CCC[C@H](N[C@@H]4CCCC[C@H]4Nc4nccc(-c5ccccc5)n4)C3)nc2)no1` [Example 391]: the concentration for a half-maximal effect (EC50) under setting [1] was determined as 2 nM.

Turning to `Cc1nc(-c2ccc(N3CCC[C@H](N[C@@H]4CCCC[C@H]4Nc4ncc(-c5ccc(OC(F)(F)F)cc5)o4)C3)nc2)no1` [Example 392], under setting [1], the EC50 amounted to 194 nM.

In the case of `Cc1nc(-c2ccc(N3CCC[C@H](N[C@@H]4CCCC[C@H]4Nc4cc(-c5cccc(C(N)=O)c5)ccn4)C3)nc2)no1` [Example 393], under setting [1], the EC50 worked out at 1 nM.

In the case of `Cc1nc(-c2ccc(N3CCC[C@H](N[C@@H]4CCCC[C@H]4Nc4ncc(-c5ccc(OC(F)(F)F)cc5)o4)C3)cn2)no1` [Example 394], under setting [1], the half-maximal effective concentration (EC50) was 427 nM.

Consider `Cc1nc(-c2ccc(N3CCC[C@H](N[C@@H]4CCCC[C@H]4Nc4nccc(-c5ccccc5)n4)C3)cn2)no1` [Example 395], for which the concentration for a half-maximal effect (EC50) under setting [1] stood at 5 nM.

With `Cc1nc(-c2ccc(N3CCC[C@H](N[C@@H]4CCCC[C@H]4Nc4ncc(-c5cccc(C(N)=O)c5)o4)C3)nc2)no1` [Example 396], the 50% effective concentration (EC50) under setting [1] came to 0.2 nM.

As for `Cc1nc(-c2ccc(N3CCC[C@H](N[C@@H]4CCCC[C@H]4Nc4ncc(-c5cccc(C(N)=O)c5)o4)C3)cn2)no1` [Example 397], the concentration for a half-maximal effect (EC50) under setting [1] turned out to be 3 nM.

In the case of `NC(=O)c1cccc(-c2cnc(N[C@@H]3CCCC[C@H]3N[C@H]3CCCN(c4ncc(C(F)(F)F)cn4)C3)o2)c1` [Example 398], the half-maximal effective concentration (EC50) (human Y4 receptor, cAMP) is 5 nM.

Take `NC(=O)c1cccc(-c2ccnc(N[C@@H]3CCCC[C@H]3N[C@H]3CCCN(c4ncc(C(F)(F)F)cn4)C3)c2)c1` [Example 399]: the EC50 (human Y4 receptor, cAMP) was 22 nM.

Regarding `C[C@]1(N[C@@H]2CCCC[C@H]2Nc2cc(-c3cccc(C(N)=O)c3)ccn2)CCCN(c2ncc(C(F)(F)F)cn2)C1` [Example 400], for the setting “human Y4 receptor, cAMP”, the EC50 amounted to 28 nM.

For `FC(F)(F)Oc1ccc(-c2cnc(N[C@@H]3CCCC[C@H]3N[C@H]3CCCN(c4cnc(C(F)(F)F)nc4)C3)o2)cc1` [Example 401], the 50% effective concentration (EC50) (human Y4 receptor, cAMP) was 1480 nM.

For `Fc1ccccc1-c1cnc(N[C@@H]2CCCC[C@H]2N[C@H]2CCCN(c3cnc(C(F)(F)F)nc3)C2)o1` [Example 402], the EC50 (human Y4 receptor, cAMP) came to 161 nM.

On to `Fc1ccc(-c2cnc(N[C@@H]3CCCC[C@H]3N[C@H]3CCCN(c4cnc(C(F)(F)F)nc4)C3)o2)c(F)c1` [Example 403], for which, for the setting “human Y4 receptor, cAMP”, the EC50 worked out at 264 nM.

As to `FC(F)(F)Oc1cccc(-c2cnc(N[C@@H]3CCCC[C@H]3N[C@H]3CCCN(c4cnc(C(F)(F)F)nc4)C3)o2)c1` [Example 404], for the setting “human Y4 receptor, cAMP”, the EC50 was found to be 954 nM.

With `C[C@]1(N[C@@H]2CCCC[C@H]2Nc2ncc(-c3cccc(C(N)=O)c3)o2)CCCN(c2ncc(C(F)(F)F)cn2)C1` [Example 405], the EC50 (human Y4 receptor, cAMP) was 4 nM.

Consider `FC(F)(F)c1ncc(N2CCC[C@H](N[C@@H]3CCCC[C@H]3Nc3ncc(-c4ccccc4)o3)C2)cn1` [Example 406], for which, where the note is “human Y4 receptor, cAMP”, the EC50 is 66 nM.

`NC(=O)c1cccc(-c2cnc(N[C@@H]3CCCC[C@H]3N[C@H]3C[C@@H]4C[C@H]3N(c3cnc(C(F)(F)F)nc3)C4)o2)c1` [Example 407]: the EC50 (human Y4 receptor, cAMP) came to 329 nM.

For `NC(=O)c1cccc(-c2ccnc(N[C@@H]3CCCC[C@H]3N[C@H]3CCCN(c4cnc(C(F)(F)F)nc4)C3)c2)c1` [Example 408], the EC50 (human Y4 receptor, cAMP) worked out at 121 nM.

For `CNC(=O)c1cccc(-c2cnc(N[C@@H]3CCCC[C@H]3N[C@H]3CCCN(c4cnc(C(F)(F)F)nc4)C3)o2)c1` [Example 409], for the setting “human Y4 receptor, cAMP”, the concentration for a half-maximal effect (EC50) worked out at 4 nM.

For `CC(C)(C)OC(=O)Nc1cccc(-c2cnc(N[C@@H]3CCCC[C@H]3N[C@H]3CCCN(c4cnc(C(F)(F)F)nc4)C3)o2)c1` [Example 410], under “human Y4 receptor, cAMP”, the EC50 turned out to be 320 nM.

For the compound `O=C(NC1CC1)c1cccc(-c2cnc(N[C@@H]3CCCC[C@H]3N[C@H]3CCCN(c4cnc(C(F)(F)F)nc4)C3)o2)c1` [Example 411], the EC50 (human Y4 receptor, cAMP) came out at 10 nM.

Regarding `Nc1cccc(-c2cnc(N[C@@H]3CCCC[C@H]3N[C@H]3CCCN(c4cnc(C(F)(F)F)nc4)C3)o2)c1` [Example 412], where the note is “human Y4 receptor, cAMP”, the EC50 is 69 nM.

In the case of `COC(=O)Nc1cccc(-c2ccnc(N[C@@H]3CCCC[C@H]3N[C@H]3CCCN(c4cnc(C(F)(F)F)nc4)C3)c2)c1` [Example 413], the EC50 (human Y4 receptor, cAMP) worked out at 6 nM.

Regarding `CS(=O)(=O)Nc1cccc(-c2cnc(N[C@@H]3CCCC[C@H]3N[C@H]3CCCN(c4cnc(C(F)(F)F)nc4)C3)o2)c1` [Example 414], the EC50 (human Y4 receptor, cAMP) stood at 5 nM.

Take `CS(=O)(=O)Nc1cccc(-c2ccnc(N[C@@H]3CCCC[C@H]3N[C@H]3CCCN(c4cnc(C(F)(F)F)nc4)C3)c2)c1` [Example 415]: where the note is “human Y4 receptor, cAMP”, the EC50 amounted to 19 nM.

On to `O=C1OCCN1c1cccc(-c2cnc(N[C@@H]3CCCC[C@H]3N[C@H]3CCCN(c4cnc(C(F)(F)F)nc4)C3)o2)c1` [Example 416], for which the EC50 (human Y4 receptor, cAMP) was determined as 49 nM.

As for `CCNC(=O)Nc1cccc(-c2cnc(N[C@@H]3CCCC[C@H]3N[C@H]3CCCN(c4cnc(C(F)(F)F)nc4)C3)o2)c1` [Example 417], for the setting “human Y4 receptor, cAMP”, the EC50 amounted to 6 nM.

On to `C[C@]1(N[C@H]2CCCC[C@@H]2Nc2cc(-c3cccc(C(N)=O)c3)ccn2)CCCN(c2cnc(C(F)(F)F)nc2)C1` [Example 418], for which the EC50 (human Y4 receptor, cAMP) was 48 nM.

For `CC(C)COC(=O)Nc1cccc(-c2cnc(N[C@@H]3CCCC[C@H]3N[C@H]3CCCN(c4cnc(C(F)(F)F)nc4)C3)o2)c1` [Example 419], the EC50 (human Y4 receptor, cAMP) is 7 nM.

In the case of `CC(C)(C)COC(=O)Nc1cccc(-c2cnc(N[C@@H]3CCCC[C@H]3N[C@H]3CCCN(c4cnc(C(F)(F)F)nc4)C3)o2)c1` [Example 420], the EC50 (human Y4 receptor, cAMP) is 212 nM.

Take `CC(C)OC(=O)Nc1cccc(-c2cnc(N[C@@H]3CCCC[C@H]3N[C@H]3CCCN(c4cnc(C(F)(F)F)nc4)C3)o2)c1` [Example 421]: where the note is “human Y4 receptor, cAMP”, the EC50 turned out to be 23 nM.

Consider `NC(=O)c1cccc(-c2cnc(N[C@@H]3CCCC[C@H]3N[C@H]3C[C@@H]4C[C@H]3N(c3ncc(C(F)(F)F)cn3)C4)o2)c1` [Example 422], for which the EC50 (human Y4 receptor, cAMP) was 41 nM.

For the compound `FC(F)(F)Oc1ccc(-c2cnc(N[C@@H]3CCCC[C@H]3N[C@H]3C[C@@H]4C[C@H]3N(c3ncc(C(F)(F)F)cn3)C4)o2)cc1` [Example 423], for the setting “human Y4 receptor, cAMP”, the EC50 amounted to 222 nM.

On to `NC(=O)c1cccc(-c2ccnc(N[C@@H]3CCCC[C@H]3N[C@H]3C[C@@H]4C[C@H]3N(c3ncc(C(F)(F)F)cn3)C4)c2)c1` [Example 424], for which, under “human Y4 receptor, cAMP”, the EC50 was 69 nM.

With `NC(=O)c1cc(-c2cnc(N[C@@H]3CCCC[C@H]3N[C@H]3CCCN(c4cnc(C(F)(F)F)nc4)C3)o2)ccn1` [Example 425], for the setting “human Y4 receptor, cAMP”, the EC50 came to 15 nM.

As to `N#Cc1ccnc(N[C@@H]2CCCC[C@H]2N[C@H]2CCCN(c3cnc(C(F)(F)F)nc3)C2)c1` [Example 426], under “human Y4 receptor, cAMP”, the EC50 was 600 nM.
